Like-named read-outs stand apart in the source and are kept apart here.
Columns and labels:
[1] = Further evaluation of BRL55792 as oral prodrug of BRL44385: AUC in blood of squirrel monkeys (Table 2); format: in vivo; conditions: 110 umol/kg, squirrel monkey, single oral dose 0.11 mmol/kg, 0-8 h, 3 animals
Method: |Further evaluation of BRL55792 as a potential oral prodrug of BRL44385 in |rats and squirrel monkeys | ^a Compounds were administered as a single oral dose at either 0.2 | mmol/kg (equivalent to 44.5 mg/kg free BRL44385) to rats with an | indwelling aortic cannula or 0.11 mmol/kg (equivalent to 25 mg/kg free | BRL44385) to squirrel monkeys. Sequential blood samples were collected up | to 8 h after compound administration. Following treatment as described in | table 1, the samples were assayed for BRL55792, BRL44385 and intermediate | matabolites. | ^b Mean areaunder-the-curve values were calculated from blood | concentrationtime profiles from 3 animals by the trapezoidal rule (0-6 h | for rats and 0-8 h for squirrel monkeys). | ^c AUC of BRL44385 from prodrug/AUC of BRL44385 from oral BRL44385

[2] = Concentrations of BRL44385 and its prodrugs detected in the blood of mice after oral administration (Table 1); format: in vivo, female Balb/c mice; conditions: mouse, 200 umol/kg, total 9-alkoxypurines, 0.2 mmol/kg oral gavage
Method: |Concentrations of BRL44385 and its Prodrugs Detected in the |Blood of Mice after Oral Administration of |9-(Alkoxymethoxypropoxy)purines^a | ^a Compounds were administered as single doses of 0.2 mmol/kg in 0.1 | ml of 1% (carboxymethyl)cellulose by oral gavage to female Balb/c mice | weighing approximately 20 g. Food was withheld for 18 h prior to the star | of the experiment. Blood was collected by cardiac puncture using | heparinised syringes 15, 60 and 180 min after dosing. Equal volumes (0.2 | ml) from three mice were pooled at each time point and 0.6 ml of 16% | trichloroacetic acid was added. After centrifugation, 0.5 ml of | supernatent was added to 0.1 ml of saturated aqueous NaHCO3 followed | by the addition of 0.6 ml of 0.4M NH4 OAc (pH 6.0) and the mixture | analysed by HPLC. | ^b 9-Alkoxypurine concentrations <2 μM were detected in the blood | 180 min after dosing.

AUC at 8 h ([1]; analyte BRL55792, read-out: Mean Area-under-the-curve ± SEM for BRL 55792) [µM·h]	concentration at 0.25 h ([2]; 15 min, read-out: Concn in blood at time (min) after dosing: total 9-alkoxypurines, 15) [µM]	concentration at 1 h ([2]; 60 min, read-out: Concn in blood at time (min) after dosing: total 9-alkoxypurines, 60) [µM]	AUC at 8 h ([1]; analyte BRL44385, read-out: Mean Area-under-the-curve ± SEM for BRL 44385) [µM·h]	SMILES
13 ± 5.7	–	–	–	CC(C)OCOCCCOn1cnc2cnc(N)nc21 [Example 1, 2-Amino-9-[3-(isopropoxymethoxy)propoxy)purine]
–	8.9	4	13 ± 2.4	Nc1nc(O)c2ncn(OCCCO)c2n1 [Example E1, 9-(3-hydroxyprop-1-oxy)guanine]

Reference: US5252575A, “Antiviral purine derivatives with improved gastrointestinal absorption” (Beecham Group p.l.c., priority 1992, dated 1993)
